{"source": "paper PMC11594329", "about": "“Development of LAT1-Selective Nuclear Medicine Therapeutics Using Astatine-211” (International Journal of Molecular Sciences, 2024)", "key": {"[1]": {"assay": "Single dose intravenous toxicity study (hematology, pathology) in ICR mice", "type": "in vivo", "settings": "ICR mice male and female, 1 MBq/mouse", "procedure": "Toxicity studies were performed using ^211At-AAMT-O-Me-L, which appeared to have the highest safety profile based on pharmacokinetic results. Labeled material was administered to ICR mice (male and female) at a dose of 1 MBq/mouse with a clear therapeutic effect, and samples were collected the day after administration and 5, 14, and 28 days later for blood and pathological examination.\nDevelopment of LAT1-selective nuclear medicine therapeutics\nKazuko Kaneda-Nakashima 1, 2*, Yoshifumi Shirakami 2, Kentaro Hisada 1, Sifan Feng 1, Yuichiro Kadonaga 2, Kazuhiro Ooe 2, Tadashi Watabe 3, Yoshiyuki Manabe 2, 4, Atsushi Shimoyama 2, 4, Masashi Murakami 2, Atsushi Toyoshima 2, Hiromitsu Haba 5, Yoshikatsu Kanai 6, Koichi Fukase 2, 4 […]\nS1. Hematological analysis\nS1.1. Animal preparation and administration of 211At-AAMT-O-Me-L\nThis study was conducted in compliance with the Animal Experiment […]\n(Hamamatsu, Japan), respectively. […] General condition and body weight were monitored. […]\nAfter the prescribed observation time, blood was collected under anesthesia and the animals were euthanized. […] Red blood cell count (RBC), hemoglobin concentration (Hb), hematocrit (Ht), white blood cell count (WBC), platelet count (platelet), lymphocytes (%Lymph), monocytes (%Mon), and granulocytes (%Gra) were calculated (Supplementary Table S2). […]"}, "[2]": {"assay": "Stability of labeled compound by TLC after labeling", "type": "physicochemical", "settings": "after 24 h and 48 h", "procedure": "All precursors were labeled by “Shirakami Reaction” and purified using an HLB column (Waters Corp, Waltham, MA, USA). All structures are shown in Supplementary Figure S1. After purification, the solution was supplemented with 1% (v/w) of ascorbic acid. The retention time of (S)-2-amino-3-(3-(astato-^211At)-4-methoxyphenyl)-2-methylpropanic acid (^211At-AAMT-OMe-L) determined using High Performance Liquid Chromatography (HPLC) (concentration: 1 MBq/mL, Flow: 1 mL/min; absorbance = 226 nm) was 12.91 min. A COSMOSIL Packed 5C18-MS-II (4.6 mm × 150 mm) Column was used at 40 °C. Mobile phase A was 0.1% formic acid and B was acetonitrile (10–60%, 20 min). […] The stability of ^211At-AAMT-OMe-L in its unpurified state was analyzed by thin layer chromatography (TLC). BAS IP MS 2025E (GE Healthcare Technologies Inc., Chicago, IL, USA) was used for imaging. […] Because optical isomers were only examined for ^211At-AAMT-OMe-L and the remaining labeled products were all L-isomers, the DL notation was omitted when optical isomers were not compared. ^211At-AAMT-O-Me-L in the crude product solution was detected at Rf = 0.80, yielding a radiochemical yield (RCY) of 81.3%. The radiochemical yield and purity of the purified product were 81% and 98%, respectively. ^211At-AAMT-O-Me-D in the crude product solution was detected at Rf = 0.80, yielding a radiochemical yield (RCY) of 79.6%. […]"}}, "data": [{"smiles": "COc1ccc(C[C@](C)(N)C(=O)O)cc1[211At]", "note": "[^211At-AAMT-O-Me-L, (S)-2-amino-3-(3-(astato-^211At)-4-methoxyphenyl)-2-methylpropanic acid]", "values": [{"measurement": "Toxicity findings (blood and pathological examination)", "setting": "[1]; day after administration", "value": "no effects were observed"}, {"measurement": "Toxicity findings (blood and pathological examination)", "setting": "[1]; five days after administration, subsequently cured", "value": "hematopoietic disorders originating from radiation exposure were observed"}, {"measurement": "Stability in unpurified state by TLC", "setting": "[2]", "value": "almost no degradation"}]}]}
